Data from patent US20070254882A1, “Sulfamide Derivatives and Pharmaceutical Composition for Upregulation of Lipid Metabolism Comprising Same” (CRYSTAL GENOMICS, INC., priority 2004, published 2007).

target: T1, human PPAR α (Homo sapiens, UniProt Q07869); test: Exogeneous PPAR α agonist assay (GAL4 DNA binding domain/PPAR α ligand binding domain, luciferase) in 293T cells; type: cell-based; design: scale not given here; details: 25 μM compound, 48 hours, luciferase activity increase relative to the control
T1 construct: expressed in transfected cells; host or cells: HepG2 (ATCC HB-8065) or 293T cells (ATCC CRL-1573)
T1 sequence (Q07869 239-466 limits assumed): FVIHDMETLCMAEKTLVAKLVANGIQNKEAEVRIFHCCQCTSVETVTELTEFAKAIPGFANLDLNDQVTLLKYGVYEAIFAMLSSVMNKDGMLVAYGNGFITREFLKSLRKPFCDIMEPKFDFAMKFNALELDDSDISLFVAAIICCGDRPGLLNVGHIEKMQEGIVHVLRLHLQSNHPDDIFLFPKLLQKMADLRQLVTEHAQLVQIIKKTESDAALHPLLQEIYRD
Experimental: Step 1) Exogeneous PPAR α Agonist Assay
Cross-activation assay of the compounds of Examples 1 to 134 against human PPAR α was carried out using a DNA construct of PPAR α including its ligand binding domain and GAL4 DNA binding domain (Sher et al., Biochemistry 32, 5598-5604, 1993) to analyze whether any of the compounds binds to the ligand binding domain of PPAR α expressed by the construct to affect the PPAR α activity. When the GAL4 DNA binding domainm which is fused with PPAR α ligand binding domain, binds to UAS (upstream activation sequence) of firefly-luciferase, the luciferase is expressed. Therefore, the effect of each of the compounds of Examples on PPAR α activation can be evaluated by analyzing the activation of luciferase.
Specifically, 2×10^4 of HepG2 (ATCC HB-8065) or 293T cells (ATCC CRL-1573) were aliquotted into each well of a 96-well plate and cultured for overnight at 37° C. in a CO2 incubator (culture condition: DMEM, 10% FBS and 1% antibiotics).
The transformation of PPAR α DNA was traced as follows. First, a mixture of the following ingredients in amounts per well; Solution A (Promega) containing 50 ng of full length human PPAR α DNA, 50 ng of firefly-luciferase construct, 5 ng of Renilla-luciferase construct, 1.0 μl of PLUS™ reagent, and 8.3 μl of a serum-free medium containing no antibiotics; was prepared and kept at room temperature for 15 min. Solution B, which contained 0.5 μl of Lipofectamine™ reagent and 9.5 μl of serum-free medium without antibiotics per well, and Solution C, which contained 50 μl of serum-free medium per well), were prepared. Solutions A, B and C were mixed together to prepare lipofectamin-DNA complex, and the mixture was kept at room temperature for 15 min. Single layer of cells on each well of a 96-well plate were washed with serum-free DMEM, 70 μl of lipofectamine-DNA complex prepared above was added thereto, the plate was incubated at 37° C. in a 5% CO2 incubator for 3 hours to transform the cells, and […] of a diluted solution of each of the compounds of Examples 1 to 134 per well was added to each well to a final concentration 25 μM, and incubated at 37° C. in a CO2 incubator for 48 hours. Then, the medium was removed, 50 μl of passive lysis buffer (Promega) was added thereto, and the plate was shook at room temperature for 20 min to lysis cells. 40 μl of Luciferase Assay reagent of Dual Luciferase Kit […] per 20 μl of cell lysis buffer was added to the plate, followed by reacting at 20° C. for 8 seconds, and 40 μl of Stop & Glo reagent (Promega) as a stop solution was added thereto to quench the reaction. The luminescence intensities of F-luciferase and R-luciferase were measured with MicroLumat Plus (Berthord Technology).

Question: Which “Activity at 25 μM Step 1 293T cell” value does the source give for `Cc1ccc(-c2nc(COc3ccc(CN(CC(=O)O)S(=O)(=O)N4CCN(C)CC4)cc3)c(C)o2)cc1` [Example 43, [N-(4-methyl-1-piperazinyl)sulfonyl-N-[4-[[2-(4-methylphenyl)-5-methyloxazol-4-yl]methoxy]benzyl]amino]acetic acid] here?
Answer: 2

Question: How did the “Activity at 25 μM Step 1 293T cell” value turn out when `Cc1ccc(-c2nc(COc3ccc(CN(CC(=O)O)S(=O)(=O)N4CCOCC4)cc3)c(C)o2)cc1` [Example 44, [N-(morpholinyl)sulfonyl-N-[4-[[2-(4-methylphenyl)-5-methyloxazol-4-yl]methoxy]benzyl]amino]acetic acid] was run?
Answer: 3

Question: How did the “Activity at 25 μM Step 1 293T cell” value turn out when `Cc1ccc(-c2nc(COc3ccc(CN(CC(=O)O)S(=O)(=O)N(C)c4ccccc4)cc3)c(C)o2)cc1` [Example 46, [N—[(N-methyl-N-phenyl)amino]sulfonyl-N-[4-[[2-(4-methylphenyl)-5-methyloxazol-4-yl]methoxy]benzyl]amino]acetic acid] was run?
Answer: 2

Question: With `Cc1oc(-c2ccc(C(F)(F)F)cc2)nc1COc1ccc(CN(CC(=O)O)S(=O)(=O)N(C)c2ccccc2)cc1` [Example 47, [N—[(N-methyl-N-phenyl)amino]sulfonyl-N-[4-[[2-(4-trifluoromethylphenyl)-5-methyloxazol-4-yl]methoxy]benzyl]amino]acetic acid] as the compound, how does the “Activity at 25 μM Step 1 293T cell” value read?
Answer: 2

Question: How did the “Activity at 25 μM Step 1 293T cell” value turn out when `Cc1oc(-c2cccs2)nc1COc1ccc(CN(CC(=O)O)S(=O)(=O)N(C)c2ccccc2)cc1` [Example 48, [N—[(N-methyl-N-phenyl)amino]sulfonyl-N-[4-[[2-(thiophen-2-yl)-5-methyloxazol-4-yl]methoxy]benzyl]amino]acetic acid] was run?
Answer: 2

Question: For `Cc1oc(-c2ccccc2)nc1COc1ccc(CN(CC(=O)O)S(=O)(=O)N(C)c2ccc(Cl)cc2)cc1` [Example 49, [N—[[N-methyl-N-(4-chlorophenyl)]amino]sulfonyl-N-[4-[(2-phenyl-5-methyloxazol-4-yl)methoxy]benzyl]amino]acetic acid], which “Activity at 25 μM Step 1 293T cell” value is on record?
Answer: 3

Question: For `Cc1ccc(-c2nc(COc3ccc(CN(CC(=O)O)S(=O)(=O)N(C)c4ccc(Cl)cc4)cc3)c(C)o2)cc1` [Example 50, [N—[[N-methyl-N-(4-chlorophenyl)]amino]sulfonyl-N-[4-[[2-(4-methylphenyl)-5-methyloxazol-4-yl]methoxy]benzyl]amino]acetic acid], which “Activity at 25 μM Step 1 293T cell” value is on record?
Answer: 2

Question: With `Cc1oc(-c2ccccc2)nc1COc1ccc(CN(CC(=O)O)S(=O)(=O)N2CCc3ccccc32)cc1` [Example 53, [N-(indolinyl)sulfonyl-N-[4-[(2-phenyl-5-methyloxazol-4-yl)methoxy]benzyl]amino]acetic acid] as the compound, how does the “Activity at 25 μM Step 1 293T cell” value read?
Answer: 2

Question: `Cc1ccc(-c2nc(COc3ccc(CN(CC(=O)O)S(=O)(=O)N4CCc5ccccc54)cc3)c(C)o2)cc1` [Example 54, [N-(indolinyl)sulfonyl-N-[4-[[2-(4-methylphenyl)-5-methyloxazol-4-yl]methoxy]benzyl]amino]acetic acid] was tested. Which “Activity at 25 μM Step 1 293T cell” value did it give?
Answer: 2

Question: `Cc1oc(-c2ccc(C(F)(F)F)cc2)nc1COc1ccc(CN(CC(=O)O)S(=O)(=O)N2CCc3ccccc32)cc1` [Example 55, [N-(indolinyl)sulfonyl-N-[4-[[2-(4-trifluoromethylphenyl)-5-methyloxazol-4-yl]methoxy]benzyl]amino]acetic acid] was tested. Which “Activity at 25 μM Step 1 293T cell” value did it give?
Answer: 2

Question: Which “Activity at 25 μM Step 1 293T cell” value does the source give for `Cc1ccc(-c2nc(COc3ccc(CN(CC(=O)O)S(=O)(=O)N4CCCc5ccccc54)cc3)c(C)o2)cc1` [Example 58, [N-(1,2,3,4-tetraquinolinyl)sulfonyl-N-[4-[[2-(4-methylphenyl)-5-methyloxazol-4-yl]methoxy]benzyl]amino]acetic acid] here?
Answer: 4

Question: For `Cc1oc(-c2ccc(C(F)(F)F)cc2)nc1COc1ccc(CN(CC(=O)O)S(=O)(=O)N2CCCc3ccccc32)cc1` [Example 59, [N-(1,2,3,4-tetrahydroquinolinyl)sulfonyl-N-[4-[[2-(4-trifluoromethylphenyl)-5-methyloxazol-4-yl]methoxy]benzyl]amino]acetic acid], which “Activity at 25 μM Step 1 293T cell” value is on record?
Answer: 3

Question: With `Cc1oc(-c2ccccc2)nc1CCOc1cccc(CN(CC(=O)O)S(=O)(=O)N(C)C)c1` [Example 61, [N—(N,N-dimethylamino)sulfonyl-N-[3-[2-(2-phenyl-5-methyloxazol-4-yl)ethoxy]benzyl]amino]acetic acid] as the compound, how does the “Activity at 25 μM Step 1 293T cell” value read?
Answer: 2

Question: `Cc1oc(-c2ccc(C(F)(F)F)cc2)nc1CCOc1cccc(CN(CC(=O)O)S(=O)(=O)NC(C)(C)C)c1` [Example 66, [N—(N-t-butylamino)sulfonyl-N-[3-[2-[2-(4-trifluoromethylphenyl)-5-methyloxazol-4-yl]ethoxy]benzyl]amino]acetic acid] was tested. Which “Activity at 25 μM Step 1 293T cell” value did it give?
Answer: 1

Question: With `Cc1oc(-c2cccs2)nc1CCOc1cccc(CN(CC(=O)O)S(=O)(=O)N(C)C)c1` [Example 72, [N—(N,N-dimethylamino)sulfonyl-N-[3-[2-[2-(thiophen-2-yl)-5-methyloxazol-4-yl]ethoxy]benzyl]amino]acetic acid] as the compound, how does the “Activity at 25 μM Step 1 293T cell” value read?
Answer: 2

Question: With `Cc1ccc(-c2nc(CCOc3cccc(CN(CC(=O)O)S(=O)(=O)N4CCCC4)c3)c(C)o2)cc1` [Example 84, [N-(pyrrolidinyl)sulfonyl-N-[3-[2-[2-(4-methylphenyl)-5-methyloxazol-4-yl]ethoxy]benzyl]amino]acetic acid] as the compound, how does the “Activity at 25 μM Step 1 293T cell” value read?
Answer: 1

Question: With `Cc1oc(-c2ccc(C(F)(F)F)cc2)nc1CCOc1cccc(CN(CC(=O)O)S(=O)(=O)N2CCCC2)c1` [Example 85, [N-(pyrrolidinyl)sulfonyl-N-[3-[2-[2-(4-trifluoromethylphenyl)-5-methyloxazol-4-yl]ethoxy]benzyl]amino]acetic acid] as the compound, how does the “Activity at 25 μM Step 1 293T cell” value read?
Answer: 1

Question: For `Cc1ccc(-c2nc(CCOc3cccc(CN(CC(=O)O)S(=O)(=O)N4CCOCC4)c3)c(C)o2)cc1` [Example 86, [N-(morpholinyl)sulfonyl-N-[3-[2-[2-(4-methylphenyl)-5-methyloxazol-4-yl]ethoxy]benzyl]amino]acetic acid], which “Activity at 25 μM Step 1 293T cell” value is on record?
Answer: 2

Question: Which “Activity at 25 μM Step 1 293T cell” value does the source give for `Cc1oc(-c2ccc(C(F)(F)F)cc2)nc1CCOc1cccc(CN(CC(=O)O)S(=O)(=O)N2CCOCC2)c1` [Example 87, [N-(morpholinyl)sulfonyl-N-[3-[2-[2-(4-trifluoromethylphenyl)-5-methyloxazol-4-yl]ethoxy]benzyl]amino]acetic acid] here?
Answer: 1

Question: With `Cc1ccc(-c2nc(CCOc3cccc(CN(CC(=O)O)S(=O)(=O)N4CCN(C)CC4)c3)c(C)o2)cc1` [Example 88, [N-(4-methyl-1-piperazinyl)sulfonyl-N-[3-[2-[2-(4-methylphenyl)-5-methyloxazol-4-yl]ethoxy]benzyl]amino]acetic acid] as the compound, how does the “Activity at 25 μM Step 1 293T cell” value read?
Answer: 1

Question: With `Cc1oc(-c2ccc(C(F)(F)F)cc2)nc1CCOc1cccc(CN(CC(=O)O)S(=O)(=O)N2CCN(C)CC2)c1` [Example 89, [N-(4-methyl-1-piperazinyl)sulfonyl-N-[3-[2-[2-(4-trifluoromethylphenyl)-5-methyloxazol-4-yl]ethoxy]benzyl]amino]acetic acid] as the compound, how does the “Activity at 25 μM Step 1 293T cell” value read?
Answer: 1

Question: How did the “Activity at 25 μM Step 1 293T cell” value turn out when `Cc1oc(-c2ccccc2)nc1CCOc1cccc(CN(CC(=O)O)S(=O)(=O)N2CCCc3ccccc32)c1` [Example 94, [N-(1,2,3,4-tetrahydroquinolinyl)sulfonyl-N-[3-[2-(2-phenyl-5-methyloxazol-4-yl)ethoxy]benzyl]amino]acetic acid] was run?
Answer: 2

Question: `Cc1oc(-c2ccccc2)nc1CCOc1ccc(CN(CC(=O)O)S(=O)(=O)N(C)C)cc1` [Example 98, [N—(N,N-dimethylamino)sulfonyl-N-[4-[2-(2-phenyl-5-methyloxazol-4-yl)ethoxy]benzyl]amino]acetic acid] was tested. Which “Activity at 25 μM Step 1 293T cell” value did it give?
Answer: 1
